In patent publication US11471444B2, “Methods of inhibiting tumor metastasis” (Vanderbilt University, priority 2017, dated 2022):

Experiments:
[1] = test system: 4T1-RFP-luciferase cells; test: Orthotopic 4T1 mouse model of metastasis (second experiment); type: in vivo, Balb/C mice; settings: ifetroban 50 mg/kg daily or aspirin 12 mg/kg daily from tumor volume 50 mm^3; lungs harvested approx. 4 weeks later; FIG. 3
Protocol: 1×10^5 4T1-RFP-luciferase cells were implanted into the left inguinal mammary fatpads of 6-week old, virgin WT Balb/C female mice as above. Mice were treated by orogastric gavage with ifetroban (50 mg/kg daily) or vehicle control when average tumor volume reached 50 mm^3 as above. Additionally a third group was treated with aspirin (12 mg/kg daily). Lungs were harvested approximately 4 weeks later. Lungs were assessed by whole mount hematoxylin staining to enumerate surface metastases (macro metastases) (FIG. 3).

[2] = test system: 4T1-RFP-luciferase cells; test: Orthotopic 4T1 mouse model of metastasis (first experiment); type: in vivo, Balb/C mice
Protocol: 1×10^5 4T1-RFP-luciferase cells were implanted into the left inguinal mammary fatpads of 6-week old, virgin WT Balb/C female mice using the following protocol. Mammary tumor cells (4T1-RFP-luciferase cells) are collected by trypsinization, counted, and resuspended in 50 microliters of serum-free media+50 microliters of growth factor-reduced Matrigel, for a total volume of 100 microliters. The cells are loaded into a syringe with a 26-g needle. The cells are injected into the inguinal mammary gland, which lies directly under (and attached to) the skin. The entire injection procedure takes about 10 seconds per mouse. Mice were treated by orogastric gavage with ifetroban (50 mg/kg daily) or vehicle control when average tumor volume reached 200 mm^3, using 8 mice in the ifetroban treatment group, 4 mice in the control group, and 4% sucrose in water for the vehicle. Tumors, lungs and plasma were harvested approximately 3 weeks later. Lungs were assessed by whole mount hematoxylin staining to enumerate surface metastases (macro metastases) (FIG. 1). Lungs were sectioned and stained with hematoxylin and eosin to confirm that hematoxylin-stained nodules were metastatic lesions, and to enumerate microscopic metastases (FIG. 2).
(§1) 1×10^5 4T1-RFP-luciferase cells were implanted into the left inguinal mammary fat pads of 6-week old, virgin WT Balb/C female mice. Mice were treated by orogastric gavage with ifetroban (50 mg/kg daily; N=8) or vehicle control (N=4) when average tumor volume reached 200 mm^3. […] Mouse total body weight was not affected by Ifetroban treatment (50 mg/kg daily) for 3 weeks (FIG. 5C).

[3] = test system: MDA-MB-231 cells; test: Lung metastases after tail vein injection of MDA-MB-231 cells; type: in vivo, mice; settings: 50 mg/kg daily by orogastric gavage from 48 h before cell injection, continued 3 weeks; FIG. 4
Protocol: Mice were randomized into groups receiving treatment by orogastric gavage with ifetroban (50 mg/kg daily) or vehicle, using 10 mice in both the ifetroban and control groups and 4% sucrose in water for the vehicle. Mice were treated 48 h prior to hematogenous delivery of MDA-MB-231 cells (1×10^5 cells) by tail vein injection, and ifetroban treatment was continued for 3 weeks thereafter, at which point lungs were collected from each mouse, and lung metastatic lesions visible to the naked eye were counted (FIG. 4).

[4] = test system: 4T1 cells; test: 4T1 cell culture growth and viability; type: cell-based; settings: treated for 96 hours; FIG. 5A
From the text: For cell culture experiments, vehicle is PBS.

[5] = Total body weight of 4T1 tumor-bearing mice; type: in vivo, Balb/C mice; settings: 50 mg/kg daily for 3 weeks; FIG. 5C
Protocol: as §1

[6] = test system: MDA-MB-231 (breast) cancer cells; test: Hematogenous metastasis of breast cancer cells (tail vein injection); type: in vivo, nu/nu mice; settings: 50 mg/kg by orogastric gavage, pre-treated 24 hours, daily for 21 days; FIG. 8
Protocol: (§2) MDA-MB-231 (breast), MiaPaca2 (pancreas) and A549 (lung) cancer cells were delivered by tail vein injection to nu/nu mice pre-treated 24 hours by orogastric gavage with ifetroban (50 mg/kg; N=10 per group) or vehicle (N=10). Mice continued daily treatment for an additional 21 days. On day 21, lungs were harvested and assessed for metastases. N=9, P value, Student's t-test.

[7] = test system: MiaPaca2 (pancreas) cancer cells; test: Hematogenous metastasis of pancreatic cancer cells (tail vein injection); type: in vivo, nu/nu mice; settings: 50 mg/kg by orogastric gavage, pre-treated 24 hours, daily for 21 days; FIG. 8
Protocol: as §2

[8] = test system: A549 (lung) cancer cells; test: Hematogenous metastasis of lung cancer cells (tail vein injection); type: in vivo, nu/nu mice; settings: 50 mg/kg by orogastric gavage, pre-treated 24 hours, daily for 21 days; FIG. 8
Protocol: as §2

CC(=O)Oc1ccccc1C(=O)O [aspirin]
surface lung metastases (macro metastases) [1]: decrease

CCCCCNC(=O)c1coc([C@H]2[C@@H](Cc3ccccc3CCC(=O)O)[C@@H]3CC[C@H]2O3)n1 [ifetroban]
microscopic lung metastases ([2]; 50 mg/kg daily by orogastric gavage from tumor volume 200 mm^3, approx. 3 weeks, lung sections, hematoxylin and eosin, FIG. 2): decrease
surface lung metastases (macro metastases) ([2]; 50 mg/kg daily by orogastric gavage from tumor volume 200 mm^3, lungs harvested approx. 3 weeks later, whole mount hematoxylin staining, FIG. 1): decrease
primary tumor volume ([2]; 50 mg/kg daily for 3 weeks, FIG. 5B): did not affect
surface lung metastases (macro metastases) [1]: decrease
lung metastatic lesions visible to the naked eye [3]: decrease
4T1 cell number (automated cell counting) [4]: no ifetroban-mediated changes
number of apoptotic 4T1 cells (Annexin V staining) [4]: no ifetroban-mediated changes
total mouse body weight [5]: not affected
hematogenous metastasis to lungs, breast cancer cells [6]: decreased
hematogenous metastasis to lungs, pancreatic cancer cells [7]: decreased
hematogenous metastasis to lungs, lung cancer cells [8]: decreased
